Read-outs that look alike come from different tables or passages of the source.
Legend:
Assay type in all cases: cell-based
[1] = system: T47D cells expressing mutant PI3Ka (H1047R); assay: In vitro cell proliferation, T47D cells (CellTiter-Glo); details: inhibition of proliferation, 72 hours, read-out: Avg T-47D EC50
Procedure: (§1) In Vitro Cell Proliferation: Determination of EC50 Values for Inhibition of Proliferation in T47D Cells Expressing Mutant PI3Ka (H1047R) Mutation and SKBR3 Cells Express WT PI3Ka.
(§2) T47D or SKBR3 cells were trypsinized, resuspended in culture media and seeded onto assay ready plates. T47D culture media consisted of RPMI, 10% FBS and Insulin (0.2 units/mL). SKBR3 culture media consisted of McCoys 5a and 10% FBS. Cells were seeded at a density of 1,500 cells/well and dispensed in 50 μl onto 384 well assay ready plates (Corning, 89089-790). Assay ready plates had previously been stamped with 10-point dilutions of compounds of interest, as well as controls. The Echo655 is used to stamp plates at 40 nL of compound or DMSO. Cells were grown for 72 hours at 37° Celsius and 5% CO2. After 72 hours, cells were equilibrated at room temperature for 15 minutes. 30 μL of CellTiter-Glo reagent is added to the plate, which is then shaken for 30 minutes at temperature at 300-500 rpm. Cells are then read on an Envision plate reader. The percentage of inhibition of proliferation was calculated using the following formula: % Inhibition=100×(LumD−Lumsample)/(LumD−Lumlnh), where D is obtained from cells treated with 0.1% DMSO only; lnh is obtained from cells treated with 10 uM Alpelisib. The effective concentration achieving 50% inhibition of proliferation (EC50) is calculated by fitting the Curve using Xlfit (v5.3.1.3), equation 201: Y=Bottom+(Top−Bottom)/(1+10^((LogEC50−X)*HillSlope)).

[2] = system: SKBR3 cells express WT PI3Ka; assay: In vitro cell proliferation, SKBR3 cells (CellTiter-Glo); details: inhibition of proliferation
Procedure: as §1, §2

[3] = system: phosphorylation of AKT (pAKT) in T47D cells expressing mutant PI3Ka (H1047R); assay: In vitro cell pAKT (Ser473) HTRF, T47D cells; details: cellular pAKT, T47D cells, mutant PI3Ka (H1047R), 6 hours, read-out: Avg T-47D IC50
Procedure: (§3) In Vitro Cell pAKT: Determination of IC50 Values for Inhibition of Phosphorylation of AKT (pAKT) in T47D Cells Expressing Mutant PI3Ka (H1047R) Mutation and SKBR3 Cells Express WT PI3Ka.
(§4) T47D or SKBR3 cells were trypsinized, resuspended in culture media and seeded onto assay ready plates. T47D culture media consisted of RPMI, 10% FBS and Insulin (0.2 units/mL). SKBR3 culture media consisted of McCoy's 5a and 10% FBS. Cells were seeded at a density of 5000 cells/well and dispensed in 12.5 μL onto 384 well assay ready plates (Perkin Elmer, 6008238)). Assay ready plates had previously been stamped with 10-point dilutions of compounds of interest, as well as controls. The Echo655 is used to stamp plates at 12.5 nL of compound or DMSO. Cells were grown for 6 hours at 37° Celsius and 5% CO2. After 6 hours, 4 μL of Lysis buffer reagent was added to the plate, which was then centrifuged for 1 minute at 1000 rpm. Then the plate was incubated at room temperature for 30 minutes. After 30 minutes, 4 μL of antibody mix containing Eu Cryptate, d2 Cryptate, and detection buffer, was added to the plate. The plate was centrifuged for 1 minute at 1000 rpm and then incubated overnight at room temperature. The plate was read on an Envision plate reader using the HTRF protocol. The percentage of inhibition of AKT phosphorylation was calculated using the following formula: % Inhibition=100×(pAKTHC−pAKTSample)/(pAKTHC−pAKTLC)), where pAKTHC is obtained from cells treated with 0.1% DMSO only; PAKTLC is obtained from cells treated with 10 uM Alpelisib. The IC50 (concentration achieving 50% inhibition of pAKT) is calculated by fitting the Curve using XIfit (v5.3.1.3), equation 201: Y=Bottom+(Top−Bottom)/(1+10^((LogIC50−X)*HillSlope)).

[4] = system: phosphorylation of AKT (pAKT) in SKBR3 cells express WT PI3Ka; assay: In vitro cell pAKT (Ser473) HTRF, SKBR3 cells; details: cellular pAKT
Procedure: as §3, §4

SMILES | EC50 [1] [nM] | EC50 ([2]; 72 hours) [µM] | IC50 [3] [nM] | IC50 ([4]; 6 hours) [µM] | EC50 ([2]; Homo sapiens, SK-BR-3, 72 h) [µM] | IC50 ([4]; Homo sapiens, SK-BR-3, 6 h) [µM] | IC50 ([3]; Homo sapiens, T47D, 6 h) [nM]
Cc1cc(C(C)Nc2ccccc2C(=O)O)c2cc(N3Cc4cccnc4C3)n(C)c(=O)c2c1 (single isomer, unassigned) [Example 19, 2-((1-(3-(5,7-dihydro-6H-pyrrolo[3,4-b]pyridin-6-yl)-2,7-dimethyl-1-oxo-1,2-dihydroisoquinolin-5-yl)ethyl)amino)benzoic acid] | 1 to 500 | 2 to 15 | 1 to 500 | > 15 |  |  | 
Cc1cc(C(C)Nc2ccccc2C(=O)O)c2cc(-c3ccc(C)nc3)n(C)c(=O)c2c1 (single isomer, unassigned) [Example 20, 2-((1-(2,7-dimethyl-3-(6-methylpyridin-3-yl)-1-oxo-1,2-dihydroisoquinolin-5-yl)ethyl)amino)benzoic acid] | 2000 to 15000 |  | > 15000 |  | > 15 | > 15 | 
Cc1cc(C(C)Nc2ccccc2C(=O)O)c2cc(-c3ccc(C)nc3)n(C)c(=O)c2c1 (single isomer, unassigned) [Example 21, 2-((1-(2,7-dimethyl-3-(6-methylpyridin-3-yl)-1-oxo-1,2-dihydroisoquinolin-5-yl)ethyl)amino)benzoic acid] | 1 to 500 | > 15 | 1 to 500 | > 15 |  |  | 
Cc1cc(C(C)Nc2ccc(Cl)nc2C(=O)O)c2cc(C3=CCC(C)(C)CC3)n(C)c(=O)c2c1 (single isomer, unassigned) [Example 22, 6-chloro-3-((1-(3-(4,4-dimethylcyclohex-1-en-1-yl)-2,7-dimethyl-1-oxo-1,2-dihydroisoquinolin-5-yl)ethyl)amino)picolinic acid] | 2000 to 15000 |  | 2000 to 15000 |  | 2 to 15 | > 15 | 
Cc1cc(C(C)Nc2ccccc2C(=O)O)c2cc(N3CCN(C(=O)CC(C)C)CC3)n(C)c(=O)c2c1 (single isomer, unassigned) [Example 32, 2-((1-(2,7-dimethyl-3-(4-(3-methylbutanoyl)piperazin-1-yl)-1-oxo-1,2-dihydroisoquinolin-5-yl)ethyl)amino)benzoic acid] | > 15000 |  | > 15000 |  | > 15 | > 15 | 
Cc1cc(C(C)Nc2ccccc2C(=O)O)c2cc(N3CCN(C(=O)CC(C)C)CC3)n(C)c(=O)c2c1 (single isomer, unassigned) [Example 33, 2-((1-(2,7-dimethyl-3-(4-(3-methylbutanoyl)piperazin-1-yl)-1-oxo-1,2-dihydroisoquinolin-5-yl)ethyl)amino)benzoic acid] | 1 to 500 | > 15 | 1 to 500 | > 15 |  |  | 
Cc1cc(C(C)Nc2ccccc2C(=O)O)c2cc(C#Cc3ccccc3)n(C)c(=O)c2c1 (single isomer, unassigned) [Example 35, 2-((1-(2,7-dimethyl-1-oxo-3-(phenylethynyl)-1,2-dihydroisoquinolin-5-yl)ethyl)amino)benzoic acid] | > 15000 |  | > 15000 |  | > 15 | > 15 | 
Cc1cc(C(C)Nc2ccccc2C(=O)O)c2cc(C#Cc3ccccc3)n(C)c(=O)c2c1 (single isomer, unassigned) [Example 36, 2-((1-(2,7-dimethyl-1-oxo-3-(phenylethynyl)-1,2-dihydroisoquinolin-5-yl)ethyl)amino)benzoic acid] | 1 to 500 | > 15 | 1 to 500 | > 15 |  |  | 
Cc1cc(C(C)Nc2ccccc2C(=O)O)c2cc(N3Cc4ccc(F)cc4C3)n(C)c(=O)c2c1 (single isomer, unassigned) [Example 49] | 1 to 500 |  |  |  | > 15 | > 15 | 1 to 500
Cc1cc(C(C)Nc2ccccc2C(=O)O)c2cc(N3CC(c4ccccc4)C3)n(C)c(=O)c2c1 (single isomer, unassigned) [Example 76] | > 15000 |  | > 15000 |  | > 15 | > 15 | 
Cc1cc(C(C)Nc2ccccc2C(=O)O)c2cc(N3CC(c4ccccc4)C3)n(C)c(=O)c2c1 (single isomer, unassigned) [Example 77] | 500 to 2000 | > 15 | 1 to 500 | > 15 |  |  | 
Cc1cc(C(C)Nc2ccccc2C(=O)O)c2cc(N3CC4(C3)CC(F)(F)C4)n(C)c(=O)c2c1 (single isomer, unassigned) [Example 80] | > 15000 |  | > 15000 |  | > 15 | > 15 | 

Other lines, results leading:

EC50 [1] [nM] | EC50 ([2]; 72 hours) [µM] | IC50 [3] [nM] | IC50 ([4]; 6 hours) [µM] | EC50 ([2]; Homo sapiens, SK-BR-3, 72 h) [µM] | IC50 ([4]; Homo sapiens, SK-BR-3, 6 h) [µM] | IC50 ([3]; Homo sapiens, T47D, 6 h) [nM] | SMILES
2000 to 15000 |  | > 15000 |  | 2 to 15 | > 15 |  | Cc1cc(C(C)Nc2ccccc2C(=O)O)c2cc(N3C[C@H]4CN(CC(F)(F)F)C[C@H]4C3)n(C)c(=O)c2c1 (single isomer, unassigned) [Example 30]
1 to 500 | 2 to 15 | 1 to 500 | > 15 |  |  |  | Cc1cc(C(C)Nc2ccccc2C(=O)O)c2cc(N3C[C@H]4CN(CC(F)(F)F)C[C@H]4C3)n(C)c(=O)c2c1 (single isomer, unassigned) [Example 31]
2000 to 15000 |  | 2000 to 15000 |  | > 15 | > 15 |  | Cc1cc(C(CF)Nc2ccccc2C(=O)O)c2cc(N3CCN(CC(F)(F)F)CC3)n(C)c(=O)c2c1 (single isomer, unassigned) [Example 37, 2-((1-(2,7-dimethyl-1-oxo-3-(4-(2,2,2-trifluoroethyl)piperazin-1-yl)-1,2-dihydroisoquinolin-5-yl)-2-fluoroethyl)amino)benzoic acid]
1 to 500 | > 15 | 1 to 500 | > 15 |  |  |  | Cc1cc(C(CF)Nc2ccccc2C(=O)O)c2cc(N3CCN(CC(F)(F)F)CC3)n(C)c(=O)c2c1 (single isomer, unassigned) [Example 38, 2-((1-(2,7-dimethyl-1-oxo-3-(4-(2,2,2-trifluoroethyl)piperazin-1-yl)-1,2-dihydroisoquinolin-5-yl)-2-fluoroethyl)amino)benzoic acid]
2000 to 15000 |  | > 15000 |  | > 15 | > 15 |  | Cc1cc(C(C)Nc2ccccc2C(=O)O)c2cc(N3CC(Cl)C3)n(C)c(=O)c2c1 (single isomer, unassigned) [Example 78]
1 to 500 | > 15 | 1 to 500 | > 15 |  |  |  | Cc1cc(C(C)Nc2ccccc2C(=O)O)c2cc(N3CC(Cl)C3)n(C)c(=O)c2c1 (single isomer, unassigned) [Example 79]
500 to 2000 | > 15 | 1 to 500 | > 15 |  |  |  | Cc1cc(C(C)Nc2ccccc2C(=O)O)c2cc(N3CC4(C3)CC(F)(F)C4)n(C)c(=O)c2c1 (single isomer, unassigned) [Example 81]
500 to 2000 |  | 1 to 500 |  | > 15 | > 15 |  | Cc1cc(C(C)Nc2ccccc2C(=O)O)c2cc(N3CC4(CC(C(F)(F)F)C4)C3)n(C)c(=O)c2c1 (single isomer, unassigned) [Example 82]
2000 to 15000 | > 15 | > 15000 | > 15 |  |  |  | Cc1cc(C(C)Nc2ccccc2C(=O)O)c2cc(N3CC4(CC(C(F)(F)F)C4)C3)n(C)c(=O)c2c1 (single isomer, unassigned) [Example 83]
